Experimental data: paper PMC3235172, “Distinct Expression Profiles and Different Functions of Odorant Binding Proteins in Nilaparvata lugens Stål” (PLoS ONE, 2011)
Like-named read-outs stand apart in the source and are kept apart here.

What was measured:
NlugOBP3 = NlugOBP3 (Nilaparvata lugens, UniProt B6E9U3); test: Competitive fluorescence binding assay (1-NPN probe) with recombinant NlugOBP3
Method: (§1) The excitation wavelength was 337 nm and the emission spectrum was recorded between 370 and 460 nm by a fluorescence spectrometer (Hitachi F-7000 Fluorescence Spectrophotometer, Japan) with a 1 cm light path quartz cuvette and 10 nm slits for both excitation and emission.

NlugOBP2 = NlugOBP2 (Nilaparvata lugens, UniProt B6E9U2); test: Competitive fluorescence binding assay (1-NPN probe) with recombinant NlugOBP2
Method: as §1

NlugOBP1 = NlugOBP1 (Nilaparvata lugens, UniProt B6E9U1); test: Competitive fluorescence binding assay (1-NPN probe) with recombinant NlugOBP1
Method: as §1

[1] = calculated from IC50, protein and 1-NPN at 2 µM, pH 7.4, read-out: OBP3 Ki
[2] = displacement of 1-NPN, protein and 1-NPN at 2 µM, 50 mM Tris-HCl pH 7.4, read-out: OBP3 IC50
[3] = calculated from IC50, protein and 1-NPN at 2 µM, pH 7.4, read-out: OBP2 Ki
[4] = displacement of 1-NPN, protein and 1-NPN at 2 µM, 50 mM Tris-HCl pH 7.4, read-out: OBP2 IC50
[5] = calculated from IC50, protein and 1-NPN at 2 µM, pH 7.4, read-out: OBP1 Ki
[6] = displacement of 1-NPN, protein and 1-NPN at 2 µM, 50 mM Tris-HCl pH 7.4, read-out: OBP1 IC50

Chain of NlugOBP2 (B6E9U2 entry or part of it): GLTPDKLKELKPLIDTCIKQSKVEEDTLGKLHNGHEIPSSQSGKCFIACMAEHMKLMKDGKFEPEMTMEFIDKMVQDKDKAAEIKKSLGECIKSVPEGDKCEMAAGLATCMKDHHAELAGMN
Chain of NlugOBP3 (B6E9U3 entry or part of it): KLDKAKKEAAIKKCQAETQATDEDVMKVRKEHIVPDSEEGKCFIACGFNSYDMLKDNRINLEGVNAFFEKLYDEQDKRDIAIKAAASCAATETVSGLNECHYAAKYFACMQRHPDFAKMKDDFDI
Chain of NlugOBP1 (B6E9U1 entry or part of it): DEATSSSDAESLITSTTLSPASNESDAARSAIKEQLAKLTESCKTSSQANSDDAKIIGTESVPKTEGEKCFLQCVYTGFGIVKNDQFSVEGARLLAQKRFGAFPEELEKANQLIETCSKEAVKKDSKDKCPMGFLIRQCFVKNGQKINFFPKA

binding ability with NlugOBP3 (in words) (NlugOBP3) | Ki (NlugOBP3; [1]) [µM] | IC50 (NlugOBP3; [2]) [µM] | Ki (NlugOBP2; [3]) [µM] | IC50 (NlugOBP2; [4]) [µM] | binding ability with NlugOBP1 (in words) (NlugOBP1) | Ki (NlugOBP1; [5]) [µM] | IC50 (NlugOBP1; [6]) [µM] | binding ability with NlugOBP2 (in words) (NlugOBP2) | Structure (SMILES) | IC50 (NlugOBP3) [µM] | Ki (NlugOBP3) [µM] | IC50 (NlugOBP2) [µM] | Ki (NlugOBP2) [µM] | IC50 (NlugOBP1) [µM] | Ki (NlugOBP1) [µM] | Kd (NlugOBP3) [µM] | Kd (NlugOBP2) [µM] | Kd (NlugOBP1) [µM]
 | > 50 | > 50 | > 50 | > 50 |  | > 50 | > 50 |  | CCCCCC(C)O (stereo not drawn) [Ligand 2, 2-Heptanol] |  |  |  |  |  |  |  |  | 
 | > 50 | > 50 | > 50 | > 50 |  | > 50 | > 50 |  | CCCCCCCCCCCCCCCCC [Ligand 30, Heptadecane] |  |  |  |  |  |  |  |  | 
 | > 50 | > 50 | > 50 | > 50 |  | > 50 | > 50 |  | CCCCCOC(C)=O [Ligand 18, Amyl acetate] |  |  |  |  |  |  |  |  | 
 | 22 | 30.8 | > 50 | > 50 |  | 37.9 | 44.4 |  | CCCCCCOC(C)=O [Ligand 21, Hexyl acetate] |  |  |  |  |  |  |  |  | 
 | > 50 | > 50 | > 50 | > 50 |  | > 50 | > 50 |  | CCCCCCCCCCCCCCCCCCCC [Ligand 28, Eicosane] |  |  |  |  |  |  |  |  | 
 | > 50 | > 50 | > 50 | > 50 |  | > 50 | > 50 |  | CCCCCCCCCCCCCC [Ligand 32, Tetradecane] |  |  |  |  |  |  |  |  | 
relatively high binding abilities | 9.6 | 13.5 | 17 | 19.8 | relatively high binding abilities | 25.3 | 29.7 | relatively high binding abilities | CCCCCCCCCCCCCC(C)=O [Ligand 16, 2-Pentadecanone] |  |  |  |  |  |  |  |  | 
relatively high binding abilities | 8.6 | 12 | 37.1 | 43.2 | relatively high binding abilities | 20.5 | 24 | relatively high binding abilities | CCCCCCCCCCCC(C)=O [Ligand 15, 2-Tridecanone] |  |  |  |  |  |  |  |  | 
 | > 50 | > 50 | > 50 | > 50 |  | > 50 | > 50 |  | CCCCCCCCCCCCC [Ligand 29, Tridecane] |  |  |  |  |  |  |  |  | 
 | 7.2 | 10.1 | > 50 | > 50 |  | 22.1 | 25.9 |  | CCCCCCCCCCCCCCCC(=O)O [Ligand 27, Palmitic acid] |  |  |  |  |  |  |  |  | 
 | 18.9 | 26.5 | > 50 | > 50 |  | 16.6 | 19.5 |  | CCCCCCCCCCCC=O [Ligand 12, Dodecyl aldehyde] |  |  |  |  |  |  |  |  | 
 | > 50 | > 50 | > 50 | > 50 |  | > 50 | > 50 |  | CCCCCCCCCCCCCCCCCC [Ligand 31, Octadecane] |  |  |  |  |  |  |  |  | 

Further lines, the compound ahead of its results:

Structure (SMILES) | binding ability with NlugOBP3 (in words) (NlugOBP3) | Ki (NlugOBP3; [1]) [µM] | IC50 (NlugOBP3; [2]) [µM] | Ki (NlugOBP2; [3]) [µM] | IC50 (NlugOBP2; [4]) [µM] | binding ability with NlugOBP1 (in words) (NlugOBP1) | Ki (NlugOBP1; [5]) [µM] | IC50 (NlugOBP1; [6]) [µM] | binding ability with NlugOBP2 (in words) (NlugOBP2) | IC50 (NlugOBP3) [µM] | Ki (NlugOBP3) [µM] | IC50 (NlugOBP2) [µM] | Ki (NlugOBP2) [µM] | IC50 (NlugOBP1) [µM] | Ki (NlugOBP1) [µM] | Kd (NlugOBP3) [µM] | Kd (NlugOBP2) [µM] | Kd (NlugOBP1) [µM]
O=Cc1ccccc1 [Ligand 14, Benzaldehyde] |  |  |  |  |  |  |  |  |  | 41 | 29.3 | 38.7 | 33.3 | > 50 | > 50 |  |  | 
CC(=O)OCCC(C)C [Ligand 19, Isoamyl acetate] | none | > 50 | > 50 | > 50 | > 50 | some affinities | 30.5 | 35.7 |  |  |  |  |  |  |  |  |  | 
CCCCCCCCCCCC(=O)O [Ligand 26, Dodecanoic acid] |  |  |  |  |  |  |  |  |  | 13.9 | 9.9 | > 50 | > 50 | 12.1 | 10.3 |  |  | 
c1ccc(Nc2cccc3ccccc23)cc1 [Ligand 1-NPN, N-phenyl-1-naphthyl-amine, reference compound] |  |  |  |  |  |  |  |  |  |  |  |  |  |  |  | 3.2 ± 0.3 | 10.3 ± 1.3 | 9.7 ± 0.9
CC(C)=CCC/C(C)=C/CC/C(C)=C/CO [Ligand 5, Farnesol] | high binding ability | 4.9 | 6.9 | 19.8 | 23 | high binding ability | 19.5 | 22.8 | high binding ability |  |  |  |  |  |  |  |  | 
CC(=O)c1ccccc1 [Ligand 17, Acetophenone] | relatively high binding abilities | 23.1 | 32.4 | 27.8 | 32.3 | relatively high binding abilities | 29.3 | 34.3 | relatively high binding abilities |  |  |  |  |  |  |  |  | 
C=C(C)[C@H]1CC=C(C)CC1 [Ligand 35, (R)-(+)-Limonene] | considerable affinities | 23.6 | 33.1 | > 50 | > 50 |  | 27.6 | 32.4 |  |  |  |  |  |  |  |  |  | 
CC(=O)/C=C/C1=C(C)CCCC1(C)C [Ligand 37, β- Ionone] | relatively high binding abilities |  |  |  |  | relatively high binding abilities |  |  | relatively high binding abilities | 8.5 | 6.1 | 25.8 | 22.2 | 25.2 | 21.5 |  |  | 
CC(C)=CCC/C(C)=C/CO [Ligand 8, Geraniol] |  |  |  |  |  |  |  |  |  | 32.6 | 23.3 | > 50 | > 50 | > 50 | > 50 |  |  | 
C=CC(C)(O)CCC=C(C)C (stereo not drawn) [Ligand 6, Linalool] | none |  |  |  |  | some affinities |  |  |  | > 50 | > 50 | > 50 | > 50 | 40.8 | 34.7 |  |  | 
COC(=O)c1ccccc1O [Ligand 25, Methyl salicylate] |  |  |  |  |  |  |  |  |  | 44.8 | 32 | 37.4 | 32.2 | > 50 | > 50 |  |  | 
CCOC(=O)c1ccccc1 [Ligand 23, Ethyl benzoate] |  |  |  |  |  |  |  |  |  | 39 | 27.9 | > 50 | > 50 | > 50 | > 50 |  |  | 
COC(=O)c1ccccc1 [Ligand 24, Methyl benzoate] |  |  |  |  |  |  |  |  |  | > 50 | > 50 | > 50 | > 50 | > 50 | > 50 |  |  | 
CC1CCC(C(C)C)C(O)C1 (stereo not drawn) [Ligand 10, Menthol] |  |  |  |  |  |  |  |  |  | > 50 | > 50 | > 50 | > 50 | > 50 | > 50 |  |  | 
C=C1CC/C=C(\C)CC[C@@H]2[C@@H]1CC2(C)C [Ligand 36, β-Caryophyllene] | considerable affinities |  |  |  |  |  |  |  |  | 37.4 | 26.7 | 30.1 | 25.9 | > 50 | > 50 |  |  | 
CC/C=C/CCO [Ligand 4, (E)-3-Hexen-1-ol] |  |  |  |  |  |  |  |  |  | 29.6 | 21.1 | > 50 | > 50 | > 50 | > 50 |  |  | 
CCC/C=C/C=O [Ligand 13, (E)-2-Hexenal] | could bind |  |  |  |  | binds none |  |  | can bind | 42 | 30 | 33.5 | 28.8 | > 50 | > 50 |  |  | 
CC1=CC[C@@H]2C[C@H]1C2(C)C [Ligand 34, (+)-α-Pinene] |  |  |  |  |  |  |  |  |  | 16.1 | 11.5 | > 50 | > 50 | 36.4 | 31.1 |  |  | 
CCC/C=C/COC(C)=O [Ligand 20, (E)-2-Hexenyl acetate] |  | 22.4 | 31.3 | 25.2 | 29.3 |  | > 50 | > 50 |  |  |  |  |  |  |  |  |  | 
C=CC(C)(O)CC/C=C(\C)CCC=C(C)C (racemic) [Ligand 3, (+/-)Nerolidol] |  | 17.7 | 24.8 | 29.1 | 33.9 |  | 24.2 | 28.4 |  |  |  |  |  |  |  |  |  | 
CC(C)(C)c1cccc(C(C)(C)C)c1O [Ligand 41, 2,6-Di-tert-butylphenol] |  | 9.5 | 13.3 | > 50 | > 50 |  | 19 | 22.3 |  |  |  |  |  |  |  |  |  | 
CC(C)c1ccccc1 [Ligand 38, Cumene] |  |  |  |  |  |  |  |  |  | 37.2 | 26.6 | 39.2 | 33.7 | > 50 | > 50 |  |  | 
CC/C=C\CCOC(C)=O [Ligand 22, (Z)-3-Hexenyl acetate] |  | 27.1 | 38 | 32.5 | 37.8 |  | > 50 | > 50 |  |  |  |  |  |  |  |  |  | 
COC(C)(C)CCC[C@H](C)C/C=C/C(C)=C/C(=O)OC(C)C (racemic) [Ligand 39, Methoprene] | high binding ability |  |  |  |  | high binding ability |  |  | high binding ability | 14.7 | 10.5 | 21.1 | 18.1 | 19.4 | 16.6 |  |  | 
